The test system of assay [1] is Mexican Bean Beetle. The experiment in a line: Mexican Bean Beetle Test. It is filed as in vivo, Epilachna varivestis (Coleoptera). The settings on record: 48 h. As for the experimental part: Cuttings of four six-day old Bountiful snap bean plants containing two leaves with approximately 5 square inches of leaf surface, are placed in water. The leaves are sprayed to wetting with about 5-10 ml. of a formulation containing a pre-determined level of the test compound. Half of the formulation is sprayed on the top surface and half on the bottom surface of the leaf using a DeVilbiss atomizer at 10 psi held at a distance of about 18 inches from the leaf. After the leaves have dried, they are cut from the stem and placed separately in petri dishes. Ten third instar, nonmolting Mexican bean beetle larvae grown on Bountiful snap beans are placed on each leaf. Controls consist of two leaves sprayed with 5 ml. of a 500 ppm malathion formulation (reference standard), two leaves sprayed with the formulation without the active ingredient and two leaves are held as untreated controls. After 48 hours, a mortality count is made and the amount of feeding noted. Moribund larvae are counted as dead.

Assay [2] relates to Southern Armyworm. The experiment in a line: Southern Armyworm Test. It is filed as in vivo, Prodenia eridania (Lepidoptera). To be noted: 500 ppm, 48 h. As for the experimental part: Ten uniform Southern armyworm larvae about 1-1.5 cm. in length, grown on Henderson lima beans, are placed on excized bean leaves in petri dishes. The bean leaves are obtained and sprayed with the insecticide in the same way as are the snap bean leaves in the Mexican bean beetle test. The reference standards in this instance are leaves sprayed with 5 ml. 100 ppm DDT solution. Mortality counts are made 48 hours after spraying and again moribund larvae are counted as dead. Missing larvae which have probably been eaten are considered alive. The same rating scale is used as in the Mexican bean beetle test.

Assay [3] has as its system Two-spotted Spider Mite. The experiment in a line: Two-spotted Spider Mite test. It is filed as in vivo, Tetranychus urticae (Acarina). To be noted: 48 h. Here is the method: The procedure in this test is the same as that in the previous aphid test, except that about 100 two-spotted spider mites from a stock colony raised on squash plants are transferred to a cut squash cotyledon. The mortality is estimated 48 hours after spraying. The same rating scale is used.

Assay [4] concerns Milkweed Bug. The assay can be described thus: Milkweed Bug Test. It is filed as in vivo, Oncopeltis fasciatus (Hemiptera). To be noted: 48 h. Here is the method: Ten adult milkweed bugs are chilled and placed in a test cage. The cages containing the bugs are sprayed with 5 ml. of a test formulation containing a pre-determined amount of the insecticide, using a DeVilbiss atomizer at 10 psi held 33 inches from the top of the cage. After the cage has been allowed to dry, the bugs are fed and watered for 48 hours. A formulation containing 500 ppm of malathion is used as a reference standard and two unsprayed cages are kept as controls. Mortality counts are made 48 hours after spraying. Moribund adults are considered dead. The same rating scale is employed as before.

The subject of assay [5] is House Fly. The experiment in a line: Housefly (Contact) Test. Format: in vivo, Musca domestica (Diptera). The settings on record: 10 ppm, 24 h. Here is the method: Rearing cages containing four-day old adult house flies are chilled at 35°-40° F. for about 1 hour. One hundred flies are transferred from the rearing cage to each test cage using a small scoop. The caged flies are kept for 1-2 hours at 70°-80° F. The cages are sprayed in the same manner as described for the milkweed bug with 5 ml. of the test formulation. Two unsprayed cages are held as controls and two cages are sprayed with a 50 ppm DDT formulation as a reference standard. Mortality counts are made 24 hours after spraying. […] The same rating scale is employed as heretofore.

Assay [6] relates to House Fly. The assay can be described thus: Housefly (Stomach) Test. It is filed as in vivo, Musca domestica (Diptera). The settings on record: 100 ppm, 24 h. Here is the method: Ten chilled house flies are taken from the rearing cage and placed in a covered petri dish. Sugar cubes treated with 0.2 ml. of a formulation containing a specified level of the insecticide are placed in the petri dish one hour after the flies have been removed from the chill room. Controls consist of sugar cubes treated with 0.2 ml. of deionized water and cubes treated with 0.2 ml. of a formulation containing 500 ppm of malathion. Mortality counts are made 24 hours later. The same rating scale is used as before.

Assay [7] relates to Oriental Cockroach. The experiment in a line: Oriental Roach Test. It is filed as in vivo, Blatta orientalis (Orthoptera). The settings on record: 500 ppm, 24 h. As for the experimental part: A rearing pan of late instar (3-4 months old) roaches is placed in a cold room for about 1 hour. Ten nymphs are taken from the pan and placed in each cage and the caged insects are kept at 70°-80° F. for 1 hour. The test cages are then sprayed in the manner indicated above in the milkweed bug test using 5 ml. of a formulation containing a specified amount of the insecticide. The test cages are held for 72 hours during which time the cockroaches are neither fed nor watered. Controls consist of 2 unsprayed cages, two cages sprayed with the formulation alone and 2 cages with a formulation containing 1000 ppm of heptachlor. Mortality counts are made 24 hours after spraying by shaking the cages lightly. All cockroaches remaining in the bottom are counted as dead.

Assay [8] deals with Boll Weevil. The assay can be described thus: Boll Weevil Test. It is filed as in vivo, Anthonomus grandis (Coleoptera). The settings on record: 48 h. From the text:
The procedure is identical to that employed for the Mexican bean beetle and the Southern armyworm, except that 10 adult boll weevils are placed on cotton leaves that have been dipped into formulations of the test compounds. The same rating scale is used.

Regarding `O=[N+]([O-])c1cc(C(F)F)cc2nc(C(F)(F)F)[nH]c12` [M, 2-trifluoromethyl-4-nitro-6-difluoromethylbenzimidazole], the mortality rating in assay [1] (50 ppm) is on record as 1.5; in assay [1] (100 ppm), 5.5; in assay [1] (500 ppm) it was 7.5; in assay [2], “.5”; in assay [3] (100 ppm) it was 6.5; in assay [3] (250 ppm) it was 8.5. Besides, the mortality rating result is listed as “.5” in assay [4] (50 ppm); 3.5 in assay [4] (100 ppm); 8.5 in assay [5]; 5.5 in assay [6]; 1.5 in assay [7]; 1.5 in assay [8] (50 ppm). Moreover, the figures for the mortality rating in assay [8] (250 ppm), in assay [8] (500 ppm) and in assay [8] (1000 ppm) were 8.5, 8.5 and 7.5, respectively.
